The target of assay [1] is recombinant human angiotensin-II receptor subtype 2 (hAT2R) (Homo sapiens (Human), UniProt P50052). The assay can be described thus: Competitive radioligand binding assay (SPA), hAT2R HEK293 membranes. The note with it: [125I]-Tyr4-Angiotensin-II, read-out: AT2R Ki. A digest of the protocol:
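SPA competition binding on membranes from HEK293 cells stably transfected with hAT2R (0.25 μg/well, with 0.1 mg/well PVT-WGA beads) in 50 mM Tris-HCl pH 7.5, 150 mM NaCl, 0.1% fatty-acid-free BSA. Ten-point four-fold dilution curves ran from 50 μM top final concentration. Bound radioactivity was counted (CPM) after 10 h at room temperature.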

The target in another assay is AT2R (Rattus norvegicus (Rat), UniProt P35351). The assay can be described thus: AT2R ex vivo autoradiography receptor occupancy in rat adrenal sections after oral dosing. Also noted: species or system Sprague Dawley rats. As for the experimental part:
The ability for a compound to engage its target may be measured by determining compound's receptor occupancy. An ex vivo autoradiography assay was conducted as described herein.
Twenty male Sprague Dawley rats (140-150 gms, Envigo) were maintained under controlled laboratory conditions on a 12 hr light cycle with ad lib access to food and water. […] Following a pre-determined survival time, plasma and adrenals were collected and frozen at −80° C. until analyzed. Frozen 20 μm sections of an adrenal from each animal were collected onto gelatin-coated slides and stored at −80° C. […] The specific ligand binding for each animal is calculated by subtracting the non-specific binding from the total bound.

A further assay has as its target rAT2R (Rattus norvegicus (Rat), UniProt P35351). The assay can be described thus: Rat binding affinity, competitive radioligand binding assay (SPA), rAT2R HEK293 membranes. The note with it: rat AT2R. Here is the method:
Membrane Preparation Protocol (hAT2R HEK293 and rAT2R HEK293)
(§1) Receptor Binding Protocol
(§2) The assays were performed with a scintillation proximity assay (SPA) method using polyvinyltoluene (PVT) wheat germ agglutinin-coupled SPA beads (Perkin Elmer Cat. #RPNQ0001). Assay buffer containing BSA (50 mM Tris-HCl, pH 7.5, 150 mM NaCl, 0.1% w/v fatty-acid free BSA) was used for preparing radioligand, membrane and SPA bead reagent dilution to working stock concentrations. Reference control and test compounds were diluted to obtain ten-point concentration response curves using a four-fold serial dilution protocol onto assay plates, dispensed acoustically from DMSO stock using automated ECHO instrument technology (Labcyte, Inc.). Concentration response curves were routinely generated with the highest final assay concentration for the reference angiotensin-II control at 50 nM, and the highest final assay concentration for the test compounds at 50 μM. […] The hAT2R membrane was combined with PVT-WGA SPA beads to obtain a final assay concentration of 0.25 μg/well hAT2R membrane+0.1 mg/well PVT-WGA SPA bead. And the hAT1R membrane PVT-WGA SPA bead final concentrations was 0.5 μg/well hAT1R membrane+0.1 mg/well PVT-WGA SPA bead. […] For all assays, radioligand addition was followed by the addition of membrane-SPA bead mixture, i.e., the hAT2R membrane-SPA bead mixture (30 μL), the rAT2R membrane-SPA bead mixture, or the AT1R membrane-SPA bead mixture (30 μL) into the assay plate. All dispensing steps were added using a Multiflo FX (Biotek, Inc.) bulk dispensing instrument. After reagent addition steps, assay plates were sealed, and plate contents mixed for one minute on a benchtop micro-plate shaker. Following a 10-hour incubation at room temperature to allow for bead settling and radioligand binding, bound radioactivity was quantitated using a Microbeta Trilux scintillation counter (Perkin Elmer) and expressed as counts per minute (CPM). The unlabeled angiotensin-II control was included on each plate as an experimental assay reference.
(§3) Compounds were tested in a 10-point concentration response curve (CRC) format, with each plate containing the positive control angiotensin-II positive reference compound, and experimental compounds. Maximum binding response (Max) was determined in 32 control wells per plate using assay buffer treatment only, and the minimum binding controls or nonspecific binding response (Min) was also determined in 32 wells per plate by the treatment with 50 nM angiotensin-II. All test sample concentration responses were normalized to the control response and calculated as a percent of the maximal response after correcting for nonspecific binding as shown below: % Specific inhibition=100%−[(CPM−Min)/(Max−Min)×100%]
(§4) Percent specific binding (y-axis) was plotted versus the log concentration of compound (x-axis).

Assay [2] has as its target recombinant human angiotensin-II receptor subtype I (hAT1R) (Homo sapiens (Human), UniProt P30556). The assay can be described thus: Competitive radioligand binding assay (SPA), hAT1R/CHO membranes. The note with it: [125I]-Tyr4-Angiotensin-II, read-out: AT1R Ki. As for the experimental part:
Membranes hATIR/CHO were Purchased from PerkinElmer, Inc.
Cellular membranes prepared from Chinese hamster ovary (CHO) cells which expressed recombinant human angiotensin-II receptor subtype I (hAT1R), were purchased from PerkinElmer (Catalog Number ES-072-M400UA).
as §1, §2, §3, §4
Binding affinities for compounds of the present disclosure were determined according to the assay described herein.
Binding affinities for compounds of the present disclosure were determined according to the assay described above.

The mark [3] stands for this setting: plasma concentration plotted vs % receptor occupancy, rat.

Broadly, the Ki is a measure of affinity in units of concentration, obtained from inhibition or displacement. What is called IC50 is the concentration that inhibits the measured activity by half. Read a low IC50 as inhibition by little substance. The IC80 is the concentration needed for an effect of 80%. A higher IC80 goes with weaker potency.

Molecules are shown by their SMILES.

Chain of AT2R (P35351 whole entry): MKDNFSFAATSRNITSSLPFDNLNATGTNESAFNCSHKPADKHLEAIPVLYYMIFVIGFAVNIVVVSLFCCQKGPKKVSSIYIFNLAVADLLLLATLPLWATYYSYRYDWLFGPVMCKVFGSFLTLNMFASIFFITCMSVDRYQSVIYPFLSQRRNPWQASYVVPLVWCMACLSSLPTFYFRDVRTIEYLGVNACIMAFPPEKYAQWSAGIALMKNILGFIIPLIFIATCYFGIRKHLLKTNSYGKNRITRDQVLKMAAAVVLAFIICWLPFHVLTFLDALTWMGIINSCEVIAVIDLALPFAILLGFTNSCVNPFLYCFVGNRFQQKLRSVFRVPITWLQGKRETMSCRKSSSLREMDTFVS
Chain of recombinant human angiotensin-II receptor subtype I (hAT1R) (P30556 whole entry): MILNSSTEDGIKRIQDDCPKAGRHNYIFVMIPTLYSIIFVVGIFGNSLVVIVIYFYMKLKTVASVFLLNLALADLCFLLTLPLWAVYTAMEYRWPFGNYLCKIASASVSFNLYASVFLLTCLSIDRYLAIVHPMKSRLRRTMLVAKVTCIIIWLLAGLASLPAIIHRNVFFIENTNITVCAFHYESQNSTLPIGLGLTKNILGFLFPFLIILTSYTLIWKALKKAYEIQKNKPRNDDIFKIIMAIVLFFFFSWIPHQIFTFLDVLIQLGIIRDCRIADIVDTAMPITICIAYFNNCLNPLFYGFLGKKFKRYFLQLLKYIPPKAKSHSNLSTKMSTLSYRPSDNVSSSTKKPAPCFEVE
Chain of rAT2R (P35351 whole entry): as the sequence (P35351 whole entry) above
Chain of recombinant human angiotensin-II receptor subtype 2 (hAT2R) (P50052 whole entry): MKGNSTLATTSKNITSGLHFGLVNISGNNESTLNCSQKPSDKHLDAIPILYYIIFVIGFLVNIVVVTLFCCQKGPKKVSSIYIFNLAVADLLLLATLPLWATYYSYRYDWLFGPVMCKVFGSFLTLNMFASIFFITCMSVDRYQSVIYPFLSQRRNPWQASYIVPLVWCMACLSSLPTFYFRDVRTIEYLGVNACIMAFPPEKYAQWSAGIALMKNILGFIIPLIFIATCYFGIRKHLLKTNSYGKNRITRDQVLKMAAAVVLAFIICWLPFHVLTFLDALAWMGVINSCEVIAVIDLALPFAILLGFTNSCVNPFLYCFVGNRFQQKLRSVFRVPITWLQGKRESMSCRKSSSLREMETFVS

In the case of `O=C(CC1(C(=O)O)CCN(c2ccccn2)CC1)N(c1ccccc1)C1CCCC(F)(F)C1` (single isomer, unassigned) [Example 74B, 4-(2-((3,3-difluorocyclohexyl)(phenyl)amino)-2-oxoethyl)-1-(pyridin-2-yl)piperidine-4-carboxylic acid], the inhibition constant Ki in assay [1] came out at 1.28 nM. At AT2R (setting [3]), the half-inhibitory concentration (IC50) worked out at 1.58 nM and the IC80 stood at 3.82 nM. Besides, on AT2R (rat receptor occupancy), the “ex vivo IC50 (TER)” value was 2.358 TER and the “ex vivo IC80 (TER)” value stood at 5.701 TER. The compound further yielded a Ki at rAT2R of 0.67 nM. Further, the Ki in assay [2] was greater than 49900 nM.

Source of the values: patent publication US12122750B2, “AT2R antagonists and uses thereof” (Eli Lilly and Company, priority 2022, dated 2024).
